In patent publication US11453683B1, “KRas G12D inhibitors” (Mirati Therapeutics, Inc., priority 2019, dated 2022):
Where a name gives a salt, the structure may show the parent alone.

test system: KRas G12D-mediated phosphorylation of ERK; experiment: Inhibition of KRas G12D-mediated phosphorylation of ERK in AGS cells; format: cell-based; settings: Homo sapiens; AGS cells expressing G12D, 3 hours, phospho-ERK normalized to GAPDH
Protocol: Cells were plated in tissue culture treated 96 well plates at a density of 40,000 cells/well and allowed to attach for 12-14 hours. Diluted compounds were then added in a final concentration of 0.5% DMSO. After 3 hours, the medium was removed, 150 μL of 4.0% formaldehyde was added and the plates incubated at room temperature for 20 minutes. The plates were washed with PBS, and permeabilized with 150 μL of ice cold 100% methanol for 10 minutes. Non-specific antibody binding to the plates was blocked using 100 μL Licor blocking buffer (Li-Cor Biotechnology, Lincoln Nebr.) for 1 hour at room temperature.
The amount of phospho-ERK was determined using an antibody specific for the phosphorylated form of ERK and compared to the amount of GAPDH. Primary antibodies used for the detection were added as follows: Phospho-ERK (Cell Signaling cs-9101) diluted 1:500 and GAPDH (Millipore MAB374) diluted 1:5000 in Licor block+0.05% Tween 20. The plates were incubated for 2 hours at room temperature. The plates were washed with PBS+0.05% Tween 20.
Secondary antibodies used to visualize primary antibodies were added as follows: Anti-rabbit-680 diluted 1:1000 and Anti-mouse-800 diluted 1:1000 both in Licor block+0.05% TweeN2O, and were incubated for 1 hour at room temperature. The plates were washed with PBS+0.05% Tween 20. A 100 μL aliquot of PBS was added to each well and the plates were read on a Li-Cor Odyssey CLX plate reader.
The phospho-ERK (Thr202/Tyr204 signal was normalized to the GAPDH signal for each well and percent of DMSO control values were calculated. IC50 values were generated using a 4-parameter fit of the dose response curve

SMILES	IC50 [µM]
Oc1cc(-c2ncc3c(N4C[C@H]5CC[C@@H](C4)N5)nc(N4CCCC4)nc3c2F)c2ccccc2c1 [Example 118, 4-(4-((1R,5S)-3,8-diazabicyclo[3.2.1]octan-3-yl)-8-fluoro-2-(pyrrolidin-1-yl)pyrido[4,3-d]pyrimidin-7-yl)naphthalen-2-ol 2,2,2-trifluoroacetate]	> 16.7
Cc1cc(-c2ncc3c(N4C[C@H]5CC[C@@H](C4)N5)nc(OCC45CCCN4CCC5)nc3c2F)c2c(Cl)cccc2c1 [Example 175, 4-((1R,5S)-3,8-diazabicyclo[3.2.1]octan-3-yl)-7-(8-chloro-3-methylnaphthalen-1-yl)-8-fluoro-2-((hexahydro-1H-pyrrolizin-7a-yl)methoxy)pyrido[4,3-d]pyrimidine]	> 5.56
C#Cc1cccc2cccc(-c3ncc4c(N5C[C@H]6CC[C@@H](C5)N6)nc(OC[C@@H]5CCCN5C)nc4c3F)c12 [Example 206, 4-((1R,5S)-3,8-diazabicyclo[3.2.1]octan-3-yl)-7-(8-ethynylnaphthalen-1-yl)-8-fluoro-2-(((S)-1-methylpyrrolidin-2-yl)methoxy)pyrido[4,3-d]pyrimidine]	0.9
CO[C@@H]1C[C@@H](COc2nc(N3C[C@H]4CC[C@@H](C3)N4)c3cnc(-c4cccc5cccc(Cl)c45)c(F)c3n2)N(C)C1 [Example 34, 4-((1R,5S)-3,8-diazabicyclo[3.2.1]octan-3-yl)-7-(8-chloronaphthalen-1-yl)-8-fluoro-2-(((2S,4R)-4-methoxy-1-methylpyrrolidin-2-yl)methoxy)pyrido[4,3-d]pyrimidine]	4.21
Fc1ccc2cccc(-c3ncc4c(N5C[C@H]6CC[C@@H](C5)N6)nc(OC[C@@]56CCCN5C[C@H](F)C6)nc4c3F)c2c1F [Example 430, 4-((1R,5S)-3,8-diazabicyclo[3.2.1]octan-3-yl)-7-(7,8-difluoronaphthalen-1-yl)-8-fluoro-2-(((2R,7aS)-2-fluorotetrahydro-1H-pyrrolizin-7a(5H)-yl)methoxy)pyrido[4,3-d]pyrimidine]	0.141
CSc1cccc2cccc(-c3ncc4c(N5C[C@H]6CC[C@@H](C5)N6)nc(OCC56CCCN5CCC6)nc4c3F)c12 [Example 199, 4-((1R,5S)-3,8-diazabicyclo[3.2.1]octan-3-yl)-8-fluoro-7-(8-(methylthio)naphthalen-1-yl)-2-((tetrahydro-1H-pyrrolizin-7a(5H)-yl)methoxy)pyrido[4,3-d]pyrimidine]	0.465
CN1CCC[C@H]1CCOc1nc(N2C[C@H]3CC[C@@H](C2)N3)c2cnc(-c3cc(O)cc4ccccc34)c(F)c2n1 [Example 10, 4-(4-((1R,5S)-3,8-diazabicyclo[3.2.1]octan-3-yl)-8-fluoro-2-(2-((S)-1-methylpyrrolidin-2-yl)ethoxy)pyrido[4,3-d]pyrimidin-7-yl)naphthalen-2-ol]	8.12
C[C@H]1CN2CCC[C@@]2(COc2nc(N3CC4CCC(C3)N4)c3cnc(-c4cccc5cccc(Cl)c45)c(F)c3n2)C1 (stereo in doubt) [Example 227, 4-((1R,5S)-3,8-diazabicyclo[3.2.1]octan-3-yl)-7-(8-chloronaphthalen-1-yl)-8-fluoro-2-((2-methyltetrahydro-1H-pyrrolizin-7a(5H)-yl)methoxy)pyrido[4,3-d]pyrimidine bis-hydrochloride]	2.98
Oc1cc(-c2ncc3c(N4C[C@H]5CC[C@@H](C4)N5)nc(OCC(F)(F)C(F)F)nc3c2F)c2ccccc2c1 [Example 52, 4-(4-((1R,5S)-3,8-diazabicyclo[3.2.1]octan-3-yl)-8-fluoro-2-(2,2,3,3-tetrafluoropropoxy)pyrido[4,3-d]pyrimidin-7-yl)naphthalen-2-ol]	8.38
CCc1cccc2cccc(-c3ncc4c(N5C[C@H]6CC[C@@H](C5)N6)nc(OCC56CCCN5CCC6)nc4c3F)c12 [Example 187, 4-((1R,5S)-3,8-diazabicyclo[3.2.1]octan-3-yl)-7-(8-ethylnaphthalen-1-yl)-8-fluoro-2-((tetrahydro-1H-pyrrolizin-7a(5H)-yl)methoxy)pyrido[4,3-d]pyrimidine]	0.45
COC(c1ccc(O)cc1-c1ncc2c(N3CC4CCC(C3)N4)nc(OC[C@@]34CCCN3C[C@H](F)C4)nc2c1F)C(F)(F)F (stereo in doubt) [Example 390, 3-(4-((1R,5S)-3,8-diazabicyclo[3.2.1]octan-3-yl)-8-fluoro-2-((2-fluorotetrahydro-1H-pyrrolizin-7a(5H)-yl)methoxy)pyrido[4,3-d]pyrimidin-7-yl)-4-(2,2,2-trifluoro-1-methoxyethyl)phenol]	6.11
CN(C)C(=O)OC[C@H]1CC[C@@]2(COc3nc(N4CC5CCC(C4)N5)c4cnc(-c5cccc6cccc(Cl)c56)c(F)c4n3)CCCN12 [Example 405, (7a-(((4-(3,8-diazabicyclo[3.2.1]octan-3-yl)-7-(8-chloronaphthalen-1-yl)-8-fluoropyrido[4,3-d]pyrimidin-2-yl)oxy)methyl)hexahydro-1H-pyrrolizin-3-yl)methyl dimethylcarbamate]	0.297
Cc1cc2[nH]ncc2c(-c2ncc3c(N4C[C@H]5CC[C@@H](C4)N5)nc(OCC45CCCN4CCC5)nc3c2F)c1C [Example 249, 4-((1R,5S)-3,8-diazabicyclo[3.2.1]octan-3-yl)-7-(5,6-dimethyl-1H-indazol-4-yl)-8-fluoro-2-((hexahydro-1H-pyrrolizin-7a-yl)methoxy)pyrido[4,3-d]pyrimidine]	7.71
OCCOc1nc(N2C[C@H]3CC[C@@H](C2)N3)c2cnc(-c3cc(O)cc4ccccc34)c(F)c2n1 [Example 69, 4-(4-((1R,5S)-3,8-diazabicyclo[3.2.1]octan-3-yl)-8-fluoro-2-(2-hydroxyethoxy)pyrido[4,3-d]pyrimidin-7-yl)naphthalen-2-ol]	> 16.7
Oc1ccc(C(F)(F)F)c(-c2ncc3c(N4C[C@H]5CC[C@@H](C4)N5)nc(OCC45CCCN4CCC5)nc3c2F)c1 [Example 373, 3-(4-((1R,5S)-3,8-diazabicyclo[3.2.1]octan-3-yl)-8-fluoro-2-((tetrahydro-1H-pyrrolizin-7a(5H)-yl)methoxy)pyrido[4,3-d]pyrimidin-7-yl)-4-(trifluoromethyl)phenol]	> 16.7
Fc1c(-c2cccc3cccc(Cl)c23)ncc2c(N3CC4CC(F)C(C3)N4)nc(OC[C@@]34CCCN3C[C@H](F)C4)nc12 (stereo partly drawn) [Example 396, 7-(8-chloronaphthalen-1-yl)-8-fluoro-4-(6-fluoro-3,8-diazabicyclo[3.2.1]octan-3-yl)-2-((2-fluorotetrahydro-1H-pyrrolizin-7a(5H)-yl)methoxy)pyrido[4,3-d]pyrimidine]	8.17
CN(C)C(=O)NC[C@H]1CC[C@@]2(COc3nc(N4CC5CCC(C4)N5)c4cnc(-c5cccc6cccc(Cl)c56)c(F)c4n3)CCCN12 [Example 412, 3-((7a-(((4-(3,8-diazabicyclo[3.2.1]octan-3-yl)-7-(8-chloronaphthalen-1-yl)-8-fluoropyrido[4,3-d]pyrimidin-2-yl)oxy)methyl)hexahydro-1H-pyrrolizin-3-yl)methyl)-1,1-dimethylurea]	4.78
N#Cc1cccc2cccc(-c3ncc4c(N5C[C@H]6CC[C@@H](C5)N6)nc(OCC56CCCN5CCC6)nc4c3F)c12 [Example 198, 8-(4-((1R,5S)-3,8-diazabicyclo[3.2.1]octan-3-yl)-8-fluoro-2-((tetrahydro-1H-pyrrolizin-7a(5H)-yl)methoxy)pyrido[4,3-d]pyrimidin-7-yl)-1-naphthonitrile]	2.43
